Measured values reported in patent US12622910B2, “Inhibitors of Bruton's tyrosine kinase and methods of their use” (Janssen Pharmaceutica NV, priority 2021, dated 2026).

Experiments:
[1] = tested on: IL-6 secretion, ABC-DLBCL OCI-LY-10 cells; test: IL-6 secretion by OCI-LY-10 cells (MesoScale); assay type: cell-based; conditions: Homo sapiens, OCI-Ly10; 6 independent experiments; read-out: IC50, IL-6 secretion (mean±SEM)
Procedure: (§1) In Vitro Activity in DLBCL Cell Lines—NFκB signaling regulates the secretion of multiple cytokines, including interleukin (IL)-6 and IL-10. Secretion of IL-6 and -10 by ABC-DLBCL OCI-LY-10 cells was measured using a MesoScale assay. […] To determine the anti-proliferative activity of the compound of formula (III), several ABC-DLBCL cell lines—OCI-LY-3, OCI-LY-10, TMD8, and HBL-1—were treated for 8 days. […] The OCI-LY-3 cell line, which harbors a CARD11 mutation downstream of BTK in the NF-κB signaling pathway, was completely insensitive to the compound of Formula (III) up to 2 μM. In 2 experiments, OCI-LY-3 cells were insensitive to the compound of Formula (III) at all concentrations up to 10 μM.

[2] = Plasma protein binding, equilibrium dialysis; assay type: in vitro ADME, guinea pig
Procedure: Additional Data on Preclinical PK Profile—Protein binding of the compound of Formula (III) was studied using an equilibrium dialysis method in plasma from human, cynomolgus monkey, beagle dog, Sprague Dawley rat, CD-1 mouse, and guinea pig at 0.25, 2.5, and 25 μM. […] In human and monkey, the plasma protein binding was concentration dependent. […] Free fraction of the compound of Formula (III) in liver microsomes from various species ranged from 75.1% to 87.9% at 0.25 mg/mL and from 58.9% to 86.5% at 1.0 mg/mL (Table 17). […] In hepatocytes, the compound of Formula (III) turnover followed a similar trend, with T1/2 ranging from 75.3 minutes in monkey to 278.1 minutes in human.

Caco-2 = Caco-2 permeability; assay type: in vitro ADME; conditions: Caco-2, 5 μM
Procedure: (§2) In vitro Absorption, Distribution, Metabolism, and Excretion—The compound of Formula (III) was assessed at a concentration of 5 μM in cell permeability models.

Caco-2 permeability = assay type: in vitro ADME; conditions: human
Procedure: as §2

[3] = tested on: OCI-LY3 (Myd88/CARD11/A20 mutant); test: Antiproliferative activity, 8 days; assay type: cell-based, human
Procedure: as §1

C=CC(=O)N[C@H]1CCC[C@H]1NC(=O)c1sc2nccc3c2c1NC(=O)N3c1cnc(CC(C)C)cc1C (atropisomer, axis not shown) [compound of Formula (III), N-((1R,2S)-2-Acrylamidocyclopentyl)-5-(S)-(6-isobutyl-4-methylpyridin-3-yl)-4-oxo-4,5-dihydro-3H-1-thia-3,5,8-triazaacenaphthylene-2-carboxamide]
IC50 [1]: 16 ± 3 nM | % Free in plasma ([2]; 2.5 μM): 3.23% | % Free in plasma ([2]; 25 μM): 3.72% | fraction unbound at 0.25 μM ([2]; guinea pig, plasma, 0.25 μM, read-out: % Free in plasma): 0.0326 | Papp A to B (Caco-2): 6.69 10^−6 cm/s | Papp B to A (Caco-2): 54.9 10^−6 cm/s | efflux ratio at 5 μM (Caco-2 permeability; Caco-2, read-out: Efflux Ratio (BA/AB)): 8.2 | Papp A→B at 5 μM (Caco-2 permeability; Caco-2, 5 μM): 6.69 ×10⁻⁶ cm/s | Papp B→A at 5 μM (Caco-2 permeability; Caco-2, 5 μM): 54.9 ×10⁻⁶ cm/s | sensitivity at all concentrations up to 10 μM ([3]; 2 experiments): insensitive | IC50 ([3]; Homo sapiens, OCI-Ly3, 192 h, 8 days, n = 4): > 2000 nM
